Experiment [1] concerns Escherichia coli (E. coli). Put plainly: MIC testing, agar dilution method. In kind it is cell-based. Conditions: 36.5 °C, 24–48 h. From the text:
(§1) The synthesized pleuromutilin derivatives 3 and 4a–l, with tiamulin fumarate used a as reference drug, were screened for their in vitro antibacterial activity against Escherichia coli (E. coli), Staphylococcus aureus (S. aureus), Methicillin-resistant Staphylococcus aureus (MRSA), Staphylococcus vitulinus (S. vitulinus), Staphylococcus warneri (S. warneri), and Staphylococcus haemolyticus (S. haemolyticus). The antibacterial activities are reported in Table 1 as the minimum inhibitory concentration (MIC) using the agar dilution method. The MICs of the 13 new pleuromutilin derivatives in vitro against E. coli ranged from 10 to 80 μg/mL; against S. aureus, MRSA, S. vitulinus, S. warneri, and S. haemolyticus ranged from 0.156 to 40 μg/mL, respectively.
(§2) The MIC for the synthesized compounds (3 and 4a–l) and tiamulin fumarate used as a reference drug were determined using the agar dilution method according to the National Committee for Clinical Laboratory Standards (NCCLS). Tested compounds were dissolved in 25%–40% DMSO to a solution with a concentration of 1280 µg/mL, whereas tiamulin fumarate was directly dissolved in 10 mL of distilled water at the same concentration as the tested compounds. All the solutions were then diluted twofold with sterile water to provide 11 dilutions (final concentration is 0.625 µg/mL). A 2 mL volume of the 2-fold serial dilution of each test compound/drug was incorporated into 18 mL of hot Muellere-Hinton agar medium. Inoculums, including five Gram (+), S. aureus, MRSA, S. vitulinus, S. warneri, S. haemolyticus, and one Gram (−), E. coli were prepared from blood slants and adjusted to approximately 10^5–10^6 CFU/mL with sterile saline (0.90% NaCl). A 10 µL amount of bacterial suspension was spotted onto Muellere-Hinton agar plates containing serial dilutions of the compounds/drug. The plates were incubated at 36.5 °C for 24–48 h. The same procedure was repeated in triplicate.

The subject of experiment [2] is Methicillin-resistant Staphylococcus aureus (MRSA). Put plainly: MIC testing, agar dilution method. In kind it is cell-based. Conditions: 36.5 °C, 24–48 h.
Source text: as §1, §2

The subject of experiment [3] is Staphylococcus aureus (S. aureus). The experiment in a line: MIC testing, agar dilution method. It is filed as cell-based. Conditions: 36.5 °C, 24–48 h.
Source text: as §1, §2

Experiment [4] concerns Staphylococcus haemolyticus (S. haemolyticus). Put plainly: MIC testing, agar dilution method. In kind it is cell-based. Conditions: 36.5 °C, 24–48 h.
Source text: as §1, §2

Experiment [5] has as its system Staphylococcus vitulinus (S. vitulinus). The experiment in a line: MIC testing, agar dilution method. In kind it is cell-based. Conditions: Mammaliicoccus vitulinus, 36.5 °C, 24–48 h.
Source text: as §1, §2

Experiment [6] has as its system Staphylococcus warneri (S. warneri). The experiment in a line: MIC testing, agar dilution method. In kind it is cell-based. The settings on record: 36.5 °C, 24–48 h.
Source text: as §1, §2

Experiment [7] has as its system E. coli. Put plainly: Oxford cup assay, zone of inhibition. It is filed as cell-based. The settings on record: Escherichia coli. The procedure: (§3) The Oxford cup assays were carried out to evaluate the antibacterial activities against the above-mentioned six bacterial strains. The zones of inhibition for two concentrations (320 and 160 μg/mL) of the synthetic compounds and tiamulin fumarate were measured. The results of Oxford cup assay correspond with that obtained by agar dilution method (MICs) as a whole.
(§4) The procedure for Oxford cup assays was the same as that previously reported. Briefly, inoculums were prepared in 0.9% saline using McFarland standard and spread uniformly on nutrient agar plates. The 320 and 160 µg/mL of all the tested compounds were added individually into the Oxford cups that were placed at equal distances above the agar surfaces. The zone of inhibition for each concentration was measured after a 24–36 h incubation at 37 °C. The same procedure was repeated in triplicate.

Experiment [8] has as its system MRSA. Put plainly: Oxford cup assay, zone of inhibition. In kind it is cell-based. Conditions: Staphylococcus aureus. The procedure:
as §3, §4

Experiment [9] deals with S. aureus. Put plainly: Oxford cup assay, zone of inhibition. In kind it is cell-based. Conditions: Staphylococcus aureus. The procedure: as §3, §4
The subject of experiment [10] is S. haemolyticus. The experiment in a line: Oxford cup assay, zone of inhibition. It is filed as cell-based. Conditions: Staphylococcus haemolyticus. The method, then: as §3, §4
Experiment [11] has as its system S. warneri. The experiment in a line: Oxford cup assay, zone of inhibition. In kind it is cell-based. Conditions: Staphylococcus warneri. The method, then:
as §3, §4

The test system of experiment [12] is S. vitulinus. Put plainly: Oxford cup assay, zone of inhibition. It is filed as cell-based, Staphylococcus vitulinus. Conditions: Mammaliicoccus vitulinus. The method, then:
as §3, §4

SMILES strings stand for the structures. Values after ≈ are worked out from the molar mass of the structure shown.

For the compound `C=C[C@]1(C)C[C@@H](OC(=O)CSc2nc3ccc(NC(=O)c4ccccc4OC)cc3[nH]2)[C@]2(C)[C@H](C)CC[C@]3(CCC(=O)[C@H]32)[C@@H](C)[C@@H]1O` [Compound 4g, 14-O-((2-Methoxybenzamide-5-aminobenzimidazole-2-yl)thioacetyl) mutilin], the MIC in [1] is 80 µg/mL (≈ 121 µM); in experiment [2] it was 40 µg/mL (≈ 60.6 µM); in [3], 40 µg/mL (≈ 60.6 µM); in [4], 10 µg/mL (≈ 15.2 µM); in experiment [5], 40 µg/mL (≈ 60.6 µM); in experiment [6], 40 µg/mL (≈ 60.6 µM). The zone of inhibition at 160 µg/mL in experiment [7] is 0 mm; in [8] it was 19.1 mm; in experiment [9], 13.7 mm; in experiment [10], 24.3 mm; in experiment [11], 18.5 mm; in experiment [12], 16.2 mm. For the same compound, the zone of inhibition at 320 µg/mL in [7] was 9.38 mm; in [8], 21.5 mm; in experiment [9] it was 18.3 mm; in experiment [10], 25.6 mm; in [11] it was 20.1 mm; in experiment [12] it was 18 mm.
Consider `C=C[C@]1(C)C[C@@H](OC(=O)CSc2nc3ccc(NC(=O)c4cccc(OC)c4)cc3[nH]2)[C@]2(C)[C@H](C)CC[C@]3(CCC(=O)[C@H]32)[C@@H](C)[C@@H]1O` [Compound 4h, 14-O-((3-Methoxybenzamide-5-aminobenzimidazole-2-yl)thioacetyl) mutilin], for which the MIC in [1] turned out to be 40 µg/mL (≈ 60.6 µM); in [2] it was 40 µg/mL (≈ 60.6 µM); in [3] it was 40 µg/mL (≈ 60.6 µM); in experiment [4], 10 µg/mL (≈ 15.2 µM); in experiment [5], 40 µg/mL (≈ 60.6 µM); in experiment [6], 40 µg/mL (≈ 60.6 µM). In addition, the zone of inhibition at 160 µg/mL in experiment [7] was 15.3 mm; in experiment [8], 16.3 mm; in experiment [9], 15.9 mm; in [10], 25.4 mm; in experiment [11] it was 17.9 mm; in experiment [12] it was 19.8 mm. For the same compound, the zone of inhibition at 320 µg/mL was determined as 18 mm in [7]; 19.7 mm in [8]; 18.7 mm in [9]; 28.4 mm in experiment [10]; 19.8 mm in [11]; 21.7 mm in [12].
On to `C=C[C@]1(C)C[C@@H](OC(=O)CSc2nc3ccc(NC(=O)c4ccc(OC)cc4)cc3[nH]2)[C@]2(C)[C@H](C)CC[C@]3(CCC(=O)[C@H]32)[C@@H](C)[C@@H]1O` [Compound 4i, 14-O-((4-Methoxybenzamide-5-aminobenzimidazole-2-yl)thioacetyl) mutilin], for which the MIC is 40 µg/mL (≈ 60.6 µM) in [1]; 20 µg/mL (≈ 30.3 µM) in experiment [2]; 40 µg/mL (≈ 60.6 µM) in [3]; 5 µg/mL (≈ 7.58 µM) in experiment [4]; 40 µg/mL (≈ 60.6 µM) in [5]; 20 µg/mL (≈ 30.3 µM) in experiment [6]. The zone of inhibition at 160 µg/mL in experiment [7] turned out to be 14.2 mm; in [8], 21.3 mm; in experiment [9], 18.6 mm; in experiment [10], 23 mm; in experiment [11], 18.6 mm; in experiment [12], 17.6 mm. The zone of inhibition at 320 µg/mL came to 17.7 mm in experiment [7]; 25.7 mm in experiment [8]; 21.5 mm in [9]; 32.9 mm in experiment [10]; 21.8 mm in [11]; 18.2 mm in experiment [12].
As for `C=C[C@]1(C)C[C@@H](OC(=O)CSc2nc3ccc(NC(=O)C4CCCCC4)cc3[nH]2)[C@]2(C)[C@H](C)CC[C@]3(CCC(=O)[C@H]32)[C@@H](C)[C@@H]1O` [Compound 4j, 14-O-((Cyclohexanecarboxamide-5-aminobenzimidazole-2-yl)thioacetyl) mutilin], the MIC in experiment [1] is 20 µg/mL (≈ 31.5 µM); in [2] it was 1.25 µg/mL (≈ 1.97 µM); in experiment [3], 5 µg/mL (≈ 7.86 µM); in experiment [4], 10 µg/mL (≈ 15.7 µM); in experiment [5], 1.25 µg/mL (≈ 1.97 µM); in [6] it was 2.5 µg/mL (≈ 3.93 µM). Also, the zone of inhibition at 160 µg/mL came to 17.4 mm in experiment [7]; 28 mm in [8]; 15.4 mm in [9]; 23 mm in experiment [10]; 24.7 mm in experiment [11]; 26 mm in experiment [12]. Besides, the zone of inhibition at 320 µg/mL in [7] came to 19.8 mm; in experiment [8] it was 31.9 mm; in experiment [9], 27.2 mm; in experiment [10], 26.4 mm; in experiment [11], 27.7 mm; in [12], 29.1 mm.
For `C=C[C@]1(C)C[C@@H](OC(=O)CSc2nc3ccc(NC(=O)c4ccc[nH]4)cc3[nH]2)[C@]2(C)[C@H](C)CC[C@]3(CCC(=O)[C@H]32)[C@@H](C)[C@@H]1O` [Compound 4k, 14-O-(((1H-Pyrrole-2-carboxamide)-5-aminobenzimidazole-2-yl)thioacetyl) mutilin], the MIC in experiment [1] is 20 µg/mL (≈ 32.3 µM); in experiment [2], 1.25 µg/mL (≈ 2.02 µM); in [3] it was 1.25 µg/mL (≈ 2.02 µM); in experiment [4], 1.25 µg/mL (≈ 2.02 µM); in experiment [5] it was 1.25 µg/mL (≈ 2.02 µM); in experiment [6], 5 µg/mL (≈ 8.08 µM). In addition, the zone of inhibition at 160 µg/mL in experiment [7] came to 18.5 mm; in [8], 26.5 mm; in experiment [9] it was 26.6 mm; in experiment [10], 25.5 mm; in experiment [11] it was 21.2 mm; in experiment [12], 24.7 mm. Also, the zone of inhibition at 320 µg/mL in [7] was found to be 20.1 mm; in [8] it was 30.7 mm; in [9] it was 28.9 mm; in experiment [10], 29.9 mm; in [11] it was 25.5 mm; in experiment [12], 27 mm.
With `C=C[C@]1(C)C[C@@H](OC(=O)CSc2nc3ccc(NC(=O)c4cc5ccccc5[nH]4)cc3[nH]2)[C@]2(C)[C@H](C)CC[C@]3(CCC(=O)[C@H]32)[C@@H](C)[C@@H]1O` [Compound 4l, 14-O-(((1H-Indole-2-carboxamide)-5-aminobenzimidazole-2-yl)thioacetyl) mutilin], the MIC in experiment [1] turned out to be 20 µg/mL (≈ 29.9 µM); in experiment [2], 10 µg/mL (≈ 15 µM); in [3], 10 µg/mL (≈ 15 µM); in [4] it was 10 µg/mL (≈ 15 µM); in experiment [5] it was 5 µg/mL (≈ 7.48 µM); in experiment [6] it was 2.5 µg/mL (≈ 3.74 µM). Besides, the zone of inhibition at 160 µg/mL in [7] was 17.4 mm; in experiment [8] it was 19.8 mm; in experiment [9], 20.9 mm; in [10], 20.8 mm; in experiment [11], 25.4 mm; in [12], 22.1 mm. Moreover, the zone of inhibition at 320 µg/mL is 20.5 mm in experiment [7]; 21.6 mm in experiment [8]; 24.7 mm in experiment [9]; 25.1 mm in experiment [10]; 29.6 mm in experiment [11]; 26.5 mm in experiment [12].

Source of the values: publication PMC6273978, “Synthesis and Pharmacological Evaluation of Novel Pleuromutilin Derivatives with Substituted Benzimidazole Moieties” (Molecules, 2016).
